Key:
Conditions in all cases: Compound concentration 100.0 nM
[1] = system: Tyrosine-protein kinase ABL1 (Homo sapiens), P00519 [E255K]
[2] = system: Tyrosine-protein kinase ABL1 (Homo sapiens), P00519 [F317L]
[3] = molecular target: Activin receptor type-1B (Homo sapiens) (UniProt P36896)
[4] = molecular target: Aurora kinase A (Homo sapiens) (UniProt O14965)
[5] = molecular target: Bone morphogenetic protein receptor type-2 (Homo sapiens) (UniProt Q13873)
[6] = molecular target: Calcium/calmodulin-dependent protein kinase type 1B (Homo sapiens) (UniProt Q6P2M8)
[7] = molecular target: Calcium/calmodulin-dependent protein kinase type II subunit gamma (Homo sapiens) (UniProt Q13555)
[8] = molecular target: Cyclin-dependent kinase 11A (Homo sapiens) (UniProt Q9UQ88)
[9] = molecular target: Cyclin-dependent kinase 13 (Homo sapiens) (UniProt Q14004)
[10] = molecular target: Cyclin-dependent kinase 4 (Homo sapiens) (UniProt P11802)
Chain of Cyclin-dependent kinase 4 (Homo sapiens) (P11802 whole entry): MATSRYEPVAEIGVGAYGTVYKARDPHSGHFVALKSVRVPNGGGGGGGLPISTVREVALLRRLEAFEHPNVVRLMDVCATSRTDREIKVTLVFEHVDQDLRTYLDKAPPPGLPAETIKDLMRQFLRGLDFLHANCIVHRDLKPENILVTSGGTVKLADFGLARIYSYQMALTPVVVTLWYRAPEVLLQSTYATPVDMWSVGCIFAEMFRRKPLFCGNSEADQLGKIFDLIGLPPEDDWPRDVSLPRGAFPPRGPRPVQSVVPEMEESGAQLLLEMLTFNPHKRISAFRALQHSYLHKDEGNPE

[11] = molecular target: Cyclin-dependent kinase 4 (Homo sapiens) (UniProt P11802); remark: listed apart in the source
[12] = molecular target: Dual specificity protein kinase CLK4 (Homo sapiens) (UniProt Q9HAZ1)
[13] = molecular target: Casein kinase II subunit alpha (Homo sapiens) (UniProt P68400)
[14] = molecular target: Dual specificity tyrosine-phosphorylation-regulated kinase 1A (Homo sapiens) (UniProt Q13627)
[15] = system: Epidermal growth factor receptor (Homo sapiens), P00533 [L861Q]
[16] = molecular target: Mitogen-activated protein kinase 3 (Homo sapiens) (UniProt P27361)
[17] = molecular target: Tyrosine-protein kinase Fes/Fps (Homo sapiens) (UniProt P07332)
[18] = system: Receptor-type tyrosine-protein kinase FLT3 (Homo sapiens), P36888 [N841I]
[19] = molecular target: Rhodopsin kinase GRK1 (Homo sapiens) (UniProt Q15835)
[20] = molecular target: Insulin receptor-related protein (Homo sapiens) (UniProt P14616)
[21] = molecular target: Interleukin-1 receptor-associated kinase 3 (Homo sapiens) (UniProt Q9Y616)
[22] = molecular target: Tyrosine-protein kinase JAK1 (Homo sapiens) (UniProt P23458)
[23] = molecular target: Leucine-rich repeat serine/threonine-protein kinase 2 (Homo sapiens) (UniProt Q5S007)
[24] = molecular target: Tyrosine-protein kinase Lyn (Homo sapiens) (UniProt P07948)
[25] = molecular target: Mitogen-activated protein kinase kinase kinase 13 (Homo sapiens) (UniProt O43283)
[26] = molecular target: Serine/threonine-protein kinase MAK (Homo sapiens) (UniProt P20794)
[27] = molecular target: Mitogen-activated protein kinase kinase kinase 2 (Homo sapiens) (UniProt Q9Y2U5)
[28] = molecular target: Dual specificity mitogen-activated protein kinase kinase 5 (Homo sapiens) (UniProt Q13163)
Chain of Dual specificity mitogen-activated protein kinase kinase 5 (Homo sapiens) (Q13163 whole entry): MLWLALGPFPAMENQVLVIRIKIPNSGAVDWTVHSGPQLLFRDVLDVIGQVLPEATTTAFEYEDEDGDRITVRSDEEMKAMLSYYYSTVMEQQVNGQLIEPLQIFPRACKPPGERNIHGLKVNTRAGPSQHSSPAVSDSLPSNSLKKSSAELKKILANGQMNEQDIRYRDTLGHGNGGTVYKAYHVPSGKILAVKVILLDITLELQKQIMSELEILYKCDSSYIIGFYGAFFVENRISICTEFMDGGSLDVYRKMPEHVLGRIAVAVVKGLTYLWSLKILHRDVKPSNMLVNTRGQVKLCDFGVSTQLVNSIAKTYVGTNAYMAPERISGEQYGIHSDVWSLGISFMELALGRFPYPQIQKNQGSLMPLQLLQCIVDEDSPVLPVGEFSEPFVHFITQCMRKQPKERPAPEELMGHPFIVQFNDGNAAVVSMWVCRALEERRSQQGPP

[29] = molecular target: Serine/threonine-protein kinase 4 (Homo sapiens) (UniProt Q13043)
[30] = molecular target: Myosin-IIIa (Homo sapiens) (UniProt Q8NEV4)
[31] = molecular target: Serine/threonine-protein kinase Nek10 (Homo sapiens) (UniProt Q6ZWH5)
[32] = molecular target: Serine/threonine-protein kinase Nek9 (Homo sapiens) (UniProt Q8TD19)
[33] = molecular target: Serine/threonine-protein kinase PAK 4 (Homo sapiens) (UniProt O96013)
[34] = molecular target: Cyclin-dependent kinase 17 (Homo sapiens) (UniProt Q00537)
[35] = molecular target: Cyclin-dependent kinase 14 (Homo sapiens) (UniProt O94921)
[36] = system: Phosphatidylinositol 4,5-bisphosphate 3-kinase catalytic subunit alpha isoform (Homo sapiens), P42336 [H1047Y]
Chain of Phosphatidylinositol 4,5-bisphosphate 3-kinase catalytic subunit alpha isoform (Homo sapiens), P42336 [H1047Y] (P42336 whole entry H1047Y, canonical isoform): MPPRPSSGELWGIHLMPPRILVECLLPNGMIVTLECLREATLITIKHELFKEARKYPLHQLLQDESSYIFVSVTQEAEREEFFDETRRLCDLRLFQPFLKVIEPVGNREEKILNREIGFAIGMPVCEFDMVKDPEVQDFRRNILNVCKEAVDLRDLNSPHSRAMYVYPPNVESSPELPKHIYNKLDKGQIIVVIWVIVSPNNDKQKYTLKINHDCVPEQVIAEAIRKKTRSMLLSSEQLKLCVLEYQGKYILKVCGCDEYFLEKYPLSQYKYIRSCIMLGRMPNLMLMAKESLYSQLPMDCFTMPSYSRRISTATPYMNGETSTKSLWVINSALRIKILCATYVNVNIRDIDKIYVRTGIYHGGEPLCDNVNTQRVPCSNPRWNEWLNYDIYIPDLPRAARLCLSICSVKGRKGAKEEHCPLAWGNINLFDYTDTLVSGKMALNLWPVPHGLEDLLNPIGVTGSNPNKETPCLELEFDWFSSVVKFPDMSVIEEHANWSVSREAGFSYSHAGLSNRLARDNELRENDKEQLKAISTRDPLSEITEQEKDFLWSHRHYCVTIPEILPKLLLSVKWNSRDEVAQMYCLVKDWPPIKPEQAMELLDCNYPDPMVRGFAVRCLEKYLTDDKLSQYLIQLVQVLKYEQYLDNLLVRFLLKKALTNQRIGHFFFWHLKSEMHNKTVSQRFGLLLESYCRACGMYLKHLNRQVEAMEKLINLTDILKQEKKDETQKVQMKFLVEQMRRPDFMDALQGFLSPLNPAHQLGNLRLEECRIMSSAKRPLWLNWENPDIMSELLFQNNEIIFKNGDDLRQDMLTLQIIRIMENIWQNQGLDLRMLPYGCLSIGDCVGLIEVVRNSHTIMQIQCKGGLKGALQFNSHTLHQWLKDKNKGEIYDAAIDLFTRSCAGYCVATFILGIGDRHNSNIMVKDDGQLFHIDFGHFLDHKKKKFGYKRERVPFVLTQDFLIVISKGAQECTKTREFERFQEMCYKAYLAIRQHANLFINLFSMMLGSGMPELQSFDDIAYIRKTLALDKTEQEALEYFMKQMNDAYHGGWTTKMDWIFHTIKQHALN

[37] = molecular target: Serine/threonine-protein kinase pim-3 (Homo sapiens) (UniProt Q86V86)
[38] = molecular target: Membrane-associated tyrosine- and threonine-specific cdc2-inhibitory kinase (Homo sapiens) (UniProt Q99640)
[39] = molecular target: Serine/threonine-protein kinase RIO1 (Homo sapiens) (UniProt Q9BRS2)
[40] = molecular target: Dual serine/threonine and tyrosine protein kinase (Homo sapiens) (UniProt Q6XUX3)
[41] = molecular target: Ribosomal protein S6 kinase alpha-3 (Homo sapiens) (UniProt P51812)
[42] = molecular target: Serine/threonine-protein kinase TAO3 (Homo sapiens) (UniProt Q9H2K8)
[43] = molecular target: Angiopoietin-1 receptor (Homo sapiens) (UniProt Q02763)
[44] = molecular target: Serine/threonine-protein kinase VRK2 (Homo sapiens) (UniProt Q86Y07)
Chain of Serine/threonine-protein kinase VRK2 (Homo sapiens) (Q86Y07 whole entry): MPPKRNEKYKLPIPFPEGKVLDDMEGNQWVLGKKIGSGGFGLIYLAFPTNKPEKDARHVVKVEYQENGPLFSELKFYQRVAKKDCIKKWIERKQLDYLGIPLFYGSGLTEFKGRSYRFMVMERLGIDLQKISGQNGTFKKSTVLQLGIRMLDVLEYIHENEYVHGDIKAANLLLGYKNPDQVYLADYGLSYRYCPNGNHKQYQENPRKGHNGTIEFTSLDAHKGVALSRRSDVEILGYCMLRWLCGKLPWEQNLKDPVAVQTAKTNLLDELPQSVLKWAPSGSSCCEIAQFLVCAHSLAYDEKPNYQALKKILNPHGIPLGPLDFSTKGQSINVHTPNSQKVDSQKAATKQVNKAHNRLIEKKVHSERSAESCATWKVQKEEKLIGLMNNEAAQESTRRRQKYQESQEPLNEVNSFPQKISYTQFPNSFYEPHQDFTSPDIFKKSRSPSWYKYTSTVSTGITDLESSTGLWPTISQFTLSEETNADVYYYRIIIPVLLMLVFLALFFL

[45] = molecular target: Serine/threonine-protein kinase 32A (Homo sapiens) (UniProt Q8WU08)
[46] = molecular target: Serine/threonine-protein kinase 32C (Homo sapiens) (UniProt Q86UX6)
Chain of Serine/threonine-protein kinase 32C (Homo sapiens) (Q86UX6 whole entry): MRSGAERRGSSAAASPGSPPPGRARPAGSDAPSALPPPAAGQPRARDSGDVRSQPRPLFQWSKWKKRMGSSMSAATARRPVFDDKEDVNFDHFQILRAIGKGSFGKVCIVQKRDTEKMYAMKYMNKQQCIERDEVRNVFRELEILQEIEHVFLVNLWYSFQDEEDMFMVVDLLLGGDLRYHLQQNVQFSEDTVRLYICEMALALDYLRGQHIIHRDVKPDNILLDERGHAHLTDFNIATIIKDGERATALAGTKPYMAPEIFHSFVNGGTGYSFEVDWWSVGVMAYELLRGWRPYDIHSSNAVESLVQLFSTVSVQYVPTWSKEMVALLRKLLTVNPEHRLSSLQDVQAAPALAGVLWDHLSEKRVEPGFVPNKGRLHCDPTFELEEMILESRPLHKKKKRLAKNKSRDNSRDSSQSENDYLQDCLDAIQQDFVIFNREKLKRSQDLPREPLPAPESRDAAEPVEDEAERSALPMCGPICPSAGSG

Measured: residual activity

Chain of Bone morphogenetic protein receptor type-2 (Homo sapiens) (Q13873 whole entry): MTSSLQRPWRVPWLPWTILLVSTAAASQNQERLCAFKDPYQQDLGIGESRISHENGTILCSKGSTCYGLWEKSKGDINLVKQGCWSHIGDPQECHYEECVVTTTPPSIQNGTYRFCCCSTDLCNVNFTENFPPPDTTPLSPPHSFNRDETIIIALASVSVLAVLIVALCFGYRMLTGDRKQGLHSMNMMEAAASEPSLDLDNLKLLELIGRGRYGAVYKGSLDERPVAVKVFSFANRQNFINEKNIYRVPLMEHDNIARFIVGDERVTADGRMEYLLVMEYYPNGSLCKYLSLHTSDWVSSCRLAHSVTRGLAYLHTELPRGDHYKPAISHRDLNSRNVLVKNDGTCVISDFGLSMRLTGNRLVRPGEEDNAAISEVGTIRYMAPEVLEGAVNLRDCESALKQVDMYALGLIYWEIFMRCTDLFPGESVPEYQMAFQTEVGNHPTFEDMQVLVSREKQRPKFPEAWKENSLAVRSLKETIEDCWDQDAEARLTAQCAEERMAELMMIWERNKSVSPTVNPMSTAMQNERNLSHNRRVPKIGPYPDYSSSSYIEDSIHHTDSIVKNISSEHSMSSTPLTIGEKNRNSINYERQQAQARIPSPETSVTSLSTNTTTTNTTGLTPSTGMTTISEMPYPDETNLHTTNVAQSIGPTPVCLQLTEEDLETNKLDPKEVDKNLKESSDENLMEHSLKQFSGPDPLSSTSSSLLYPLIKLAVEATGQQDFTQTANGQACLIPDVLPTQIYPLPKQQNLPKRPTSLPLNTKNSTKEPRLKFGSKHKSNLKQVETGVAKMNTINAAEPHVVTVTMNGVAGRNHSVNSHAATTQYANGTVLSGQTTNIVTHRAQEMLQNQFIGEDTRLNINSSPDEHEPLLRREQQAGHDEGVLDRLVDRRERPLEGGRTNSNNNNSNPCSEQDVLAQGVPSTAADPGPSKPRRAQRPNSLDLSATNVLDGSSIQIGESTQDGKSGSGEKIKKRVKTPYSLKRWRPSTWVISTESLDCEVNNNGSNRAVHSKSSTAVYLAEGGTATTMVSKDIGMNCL
Chain of Tyrosine-protein kinase ABL1 (Homo sapiens), P00519 [E255K] (P00519 whole entry E255K): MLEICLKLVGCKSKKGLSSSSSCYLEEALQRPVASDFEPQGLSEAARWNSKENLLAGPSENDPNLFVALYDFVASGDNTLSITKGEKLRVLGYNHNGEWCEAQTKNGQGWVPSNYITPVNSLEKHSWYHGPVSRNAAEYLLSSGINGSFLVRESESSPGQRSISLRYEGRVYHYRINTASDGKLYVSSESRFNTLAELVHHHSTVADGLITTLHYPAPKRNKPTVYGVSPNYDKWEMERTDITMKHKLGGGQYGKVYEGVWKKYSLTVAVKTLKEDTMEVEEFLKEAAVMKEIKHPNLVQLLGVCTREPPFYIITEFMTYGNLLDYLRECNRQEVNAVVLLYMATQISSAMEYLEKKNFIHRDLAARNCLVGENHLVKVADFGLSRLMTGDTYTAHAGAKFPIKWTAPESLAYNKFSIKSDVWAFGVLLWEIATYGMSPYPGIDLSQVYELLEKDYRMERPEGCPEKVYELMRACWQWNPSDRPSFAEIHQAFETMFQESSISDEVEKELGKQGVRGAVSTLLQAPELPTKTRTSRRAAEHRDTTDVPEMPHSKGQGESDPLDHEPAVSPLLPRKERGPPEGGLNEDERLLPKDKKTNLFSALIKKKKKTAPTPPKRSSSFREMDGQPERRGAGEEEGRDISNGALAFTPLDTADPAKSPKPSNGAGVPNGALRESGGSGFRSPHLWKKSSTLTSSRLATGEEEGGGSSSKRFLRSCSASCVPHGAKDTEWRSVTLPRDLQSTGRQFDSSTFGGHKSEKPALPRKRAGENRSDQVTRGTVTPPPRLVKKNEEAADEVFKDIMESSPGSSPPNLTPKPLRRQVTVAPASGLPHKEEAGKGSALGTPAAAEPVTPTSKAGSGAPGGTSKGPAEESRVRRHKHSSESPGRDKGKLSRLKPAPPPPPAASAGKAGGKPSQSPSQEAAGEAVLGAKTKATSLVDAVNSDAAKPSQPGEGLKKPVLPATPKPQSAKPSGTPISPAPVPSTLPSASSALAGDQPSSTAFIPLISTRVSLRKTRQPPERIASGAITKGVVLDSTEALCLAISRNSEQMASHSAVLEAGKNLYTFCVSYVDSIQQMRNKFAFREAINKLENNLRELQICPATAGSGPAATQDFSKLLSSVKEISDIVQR
Chain of Tyrosine-protein kinase ABL1 (Homo sapiens), P00519 [F317L] (P00519 whole entry F317L): as the sequence (P00519 whole entry E255K) above, with K255E, F317L counted along it

CS(=O)(=O)N1CCCC(NC(=O)[C@H](CCC2CCCCC2)NC(=O)c2ccc(CNC(=O)c3cnc4ccccn34)cc2)C1 (some centres not stated) [SR-302]
inactive: [1] 74% | [2] 100% | [3] 96% | [4] 100% | [5] 100% | [6] 77% | [7] 86% | [8] 100% | [9] 61% | [10] 99% | [11] 100% | [12] 98% | [13] 100% | [14] 100% | [15] 100% | [16] 67% | [17] 100% | [18] 67% | [19] 100% | [20] 100% | [21] 65% | [22] 64% | [23] 64% | [24] 100% | [25] 74% | [26] 100% | [27] 100% | [28] 97% | [29] 100% | [30] 99% | [31] 100% | [32] 100% | [33] 100% | [34] 80% | [35] 100% | [36] 84% | [37] 99% | [38] 100% | [39] 73% | [40] 100% | [41] 100% | [42] 83% | [43] 92% | [44] 76% | [45] 81% | [46] 85%

CS(=O)(=O)N1CCCC(NC(=O)[C@H](CCC2CCCCC2)NC(=O)c2ccc(CNc3ncnc4c3nnn4-c3ccccc3)cc2)C1 (some centres not stated) [SR-301]
inactive: [1] 87% | [2] 91% | [3] 94% | [4] 100% | [5] 100% | [6] 100% | [7] 94% | [8] 87% | [9] 100% | [10] 91% | [11] 100% | [12] 85% | [13] 94% | [14] 87% | [15] 100% | [16] 89% | [17] 87% | [18] 99% | [19] 94% | [20] 100% | [21] 100% | [22] 100% | [23] 51% | [24] 96% | [25] 100% | [26] 100% | [27] 100% | [28] 100% | [29] 100% | [30] 97% | [31] 100% | [32] 100% | [33] 100% | [34] 86% | [35] 100% | [36] 100% | [37] 100% | [38] 74% | [39] 54% | [40] 80% | [41] 100% | [42] 100% | [43] 73% | [44] 91% | [45] 57% | [46] 100%

Reference: ChEMBL document CHEMBL4507324 (2021)
